Test results taken from US8648096B2, “N-methylaminomethyl isoindole compounds and compositions comprising and methods of using the same” (Celgene Corporation, priority 2006, dated 2014).

CN(Cc1cccc2c1C(=O)N(C1CCC(=O)NC1=O)C2=O)C(=O)OC(C)(C)C (stereo not shown) [Example 5.1, [2-(2,6-dioxo-piperidin-3-yl)-1,3-dioxo-2,3-dihydro-1H-isoindol-4-ylmethyl]-methyl-carbamic acid T-butyl ester]
melting point: 138 to 140 °C

Cc1cccc(NC(=O)N(C)Cc2cccc3c2CN(C2CCC(=O)NC2=O)C3=O)c1 (stereo not shown) [Example 5.29, 1-[2-(2,6-dioxo-piperidin-3-yl)-1-oxo-2,3-dihydro-1H-isoindol-4-ylmethyl]-1-methyl-3-M-tolyl-urea]
melting point: 208 to 210 °C

CCCNC(=O)N(C)Cc1cccc2c1CN(C1CCC(=O)NC1=O)C2=O (stereo not shown) [Example 5.30, 1-[2-(2,6-dioxo-piperidin-3-yl)-1-oxo-2,3-dihydro-1H-isoindol-4-ylmethyl]-1-methyl-3-propyl-urea]
melting point: 220 to 222 °C

CN(Cc1cccc2c1CN(C1CCC(=O)NC1=O)C2=O)C(=O)Nc1cccc(Cl)c1 (stereo not shown) [Example 5.32, 3-(3-chloro-phenyl)-1-[2-(2,6-dioxo-piperidin-3-yl)-1-oxo-2,3-dihydro-1H-isoindol-4-ylmethyl]-1-methyl-urea]
melting point: 193 to 195 °C

CN(Cc1cccc2c1CN(C1CCC(=O)NC1=O)C2=O)C(=O)Nc1cccc(C(F)(F)F)c1 (stereo not shown) [Example 5.34, 1-[2-(2,6-dioxo-piperidin-3-yl)-1-oxo-2,3-dihydro-1H-isoindol-4-ylmethyl]-1-methyl-3-(3-trifluoromethyl-phenyl)-urea]
melting point: 198 to 200 °C

CN(Cc1cccc2c1C(=O)N(C1CCC(=O)NC1=O)C2=O)C(=O)Nc1cccc(Cl)c1 (stereo not shown) [Example 5.35, 3-(3-chloro-phenyl)-1-[2-(2,6-dioxo-piperidin-3-yl)-1,3-dioxo-2,3-dihydro-1H-isoindol-4-ylmethyl]-1-methyl-urea]
melting point: 193 to 195 °C

CN(Cc1cccc2c1C(=O)N(C1CCC(=O)NC1=O)C2=O)C(=O)NC(C)(C)C (stereo not shown) [Example 5.36, 3-tert-butyl-1-[2-(2,6-dioxo-piperidin-3-yl)-1,3-dioxo-2,3-dihydro-1H-isoindol-4-ylmethyl]-1-methyl-urea]
melting point: 188 to 190 °C

CN(Cc1cccc2c1CN(C1CCC(=O)NC1=O)C2=O)C(=O)Nc1cc(Cl)cc(Cl)c1 (stereo not shown) [Example 5.37, 3-(3,5-dichloro-phenyl)-1-[2-(2,6-dioxo-piperidin-3-yl)-1-oxo-2,3-dihydro-1H-isoindol-4-ylmethyl]-1-methyl-urea]
melting point: 285 to 287 °C

Cc1ccc(NC(=O)N(C)Cc2cccc3c2C(=O)N(C2CCC(=O)NC2=O)C3=O)cc1C (stereo not shown) [Example 5.40, 3-(3,4-dimethyl-phenyl)-1-[2-(2,6-dioxo-piperidin-3-yl)-1,3-dioxo-2,3-dihydro-1H-isoindol-4-ylmethyl]-1-methyl-urea]
melting point: 202 to 204 °C

CN(Cc1cccc2c1CN(C1CCC(=O)NC1=O)C2=O)C(=O)Nc1cccc2ccccc12 (stereo not shown) [Example 5.41, 1-[2-(2,6-dioxo-piperidin-3-yl)-1-oxo-2,3-dihydro-1H-isoindol-4-ylmethyl]-1-methyl-3-naphthalen-1-yl-urea]
melting point: 292 to 294 °C
